Assay results as given in article PMC12574689, “Synthesis of novel SRPK1-targeting hybrid compounds incorporating antimetabolites for cancer therapy” (RSC Medicinal Chemistry, 2025).

What was measured:
[1] = test system: SRPK1 in HeLa cells; test: Immunofluorescence of SRPK1 subcellular localization; type: cell-based
Protocol: In a following step the effect of geo140 was tested on the subcellular distribution of SRPK1 in HeLa cells. To address this issue, a series of immunofluorescence experiments was performed to assess the effect of geo140, relative to its parent compounds, JH-VII-139-1 and 5-FU on SRPK1 localization.
Fig. 6 Fluorescent patterns of SRPK1 in HeLa cells treated with JH-VII-139-1, 5-FU, and geo140 (for the indicated concentrations and time periods). SRPK1 was detected using an anti-SRPK1 monoclonal antibody (Alexa488-green fluorescence) while nuclei were stained with PI (red fluorescence). Scale bar: 10 μm.
HeLa cells (3 × 10^4 cells per well) were seeded on glass coverslips in 24-well plates. After 24 hours, cells were treated with the indicated concentrations of inhibitors for 24 or 48 hours. Following incubation, samples were fixed with 4% paraformaldehyde in PBS for 20 minutes at room temperature. Paraformaldehyde was quenched with 100 mM Tris-HCl (pH 7.5), and cells were permeabilized with 0.2% Triton X-100 in PBS for 10 minutes. Blocking was performed with 0.5% fish skin gelatin in PBS. Cells were then probed with a primary antibody (anti-SRPK1 monoclonal, 1 : 100 dilution, BD Biosciences, San Jose, CA, USA) and a secondary antibody (Alexa488-conjugated goat anti-mouse, 1 : 400 dilution, Molecular Probes, Eugene, OR, USA), followed by DNA staining with propidium iodide, as previously described.[25] Coverslips were mounted with mounting medium (0.01% p-phenylenediamine and 50% glycerol in PBS) and visualized using a Nikon confocal microscope with EZ-C1 3.20 software.

[2] = test system: HepG2; test: MTT viability assay, HepG2; type: cell-based; settings: Homo sapiens, 48 h treatment, mean of three independent experiments
Protocol: (§1) To evaluate the cytotoxic effects of the hybrid compounds geo15 and geo140, we performed MTT assays on HeLa, K562, A549, HepG2, HT-29 and Caco2 cancer cell lines, as well as primary intestinal subepithelial myofibroblasts (SEMFs).
(§2) HeLa, K562, HT-29, Caco-2, HepG2 and A549 cancer cell lines were obtained from the American Type Culture Collection (ATCC). All cell lines were cultured at 37 °C with 5% CO2. HeLa, Caco-2, HepG2 and A549 cells were maintained in Dulbecco's modified Eagle medium (DMEM, PAN Biotech) supplemented with 10% FBS and antibiotics/antimycotics, while K562 cells were maintained in RPMI and HT-29 cells in McCoy's 5a medium (Biosera) with the same supplements.
(§3) All cells were seeded in 96-well plates (Corning, New York, USA) at density of 10^4 cells per well, except HeLa that were seeded at destiny of 2 × 10^3. After 24 hours, the cells were treated with increasing concentrations of the inhibitory compounds for 48 hours. Cytotoxic activity of parent and conjugate compounds was assessed by 3-(4,5-dimethylthiazol-2-yl)-2,5-diphenyltetrazolium bromide (MTT) assay, according to manufacturer's instructions. In brief, 100 μl of growth medium containing 0.5 mg ml^−1 MTT (Sigma-Aldrich, Darmstadt, Germany) were added to each well of a 96-well plate and incubated at 37 °C and 5% CO2 for 2 hours until the formation of visible intracellular purple crystals. Then, MTT-supplemented growth medium was discarded and 100 μl dimethyl sulfoxide (Sigma-Aldrich, Darmstadt, Germany) were added per well for solubilization of dye. Absorbance was then measured on a microplate reader (Diareader EL 800; Dialab, Wr. Neudorf, Austria) at 570 nm with a reference wavelength at 660 nm.

[3] = test system: HT-29; test: MTT viability assay, HT-29; type: cell-based; settings: Homo sapiens; HT-29, MTT, 48 h treatment, mean of three independent experiments
Protocol: as §1, §2, §3

[4] = test system: primary intestinal subepithelial myofibroblasts (SEMFs); test: MTT viability assay, primary SEMFs; type: cell-based; settings: Homo sapiens, 48 h treatment, mean of three independent experiments
Excerpt: as §1
Intestinal myofibroblast isolation: primary intestinal subepithelial myofibroblasts were isolated from freshly collected intestinal mucosa biopsies as previously described,[28] from healthy individuals undergoing endoscopy for reasons of surveillance, after obtaining written and informed consent. Briefly, 4–6 pieces of intestinal tissue were collected in ice-cold Hank's Balanced Salt Solution (HBSS; Biosera, Nuaille, France) containing Ca^2+/Mg^2+ supplemented with P/S/A/G: penicillin (100 U ml^−1), streptomycin (100 μg ml^−1), amphotericin (2.5 μg ml^−1) and gentamycin (50 μg ml^−1), followed by 15 minute washes with HBSS with and without Ca^2+/Mg^2+ to remove possible contaminants. Next tissue was de-epithelialized by a 15 minute incubation in HBSS without Ca^2+/Mg^2+ containing 1 mM dithiothreitol (DTT, Sigma-Aldrich, Darmstadt, Germany) followed by 3× 30 minute washes in HBSS supplemented with 1 mM ethylenediaminetetraacetic acid (EDTA, Sigma-Aldrich, Darmstadt, Germany) at 37 °C. Tissue was cultured in RPMI 1640 (PAN Biotech, Aidenbach, Germany) supplemented with 10% fetal bovine serum (FBS; Biosera, Nuaille, France) and P/S/A/G for as long as 30 days at 37 °C and 5% CO2. After colonies of myofibroblasts reached 30% confluency, cells were detached and consequently cultured in 75 cm^2 flasks in Dulbecco's modified Eagle medium (DMEM, 4.5 g l^−1 glucose; PAN Biotech, Aidenbach, Germany) with 10% fetal bovine serum and P/S/A.
as §3

[5] = test system: A549; test: MTT viability assay, A549; type: cell-based; settings: Homo sapiens, 48 h treatment, mean of three independent experiments
Protocol: as §1, §2, §3

[6] = test system: K562; test: MTT viability assay, K562; type: cell-based; settings: Homo sapiens, 48 h treatment, mean of three independent experiments
Protocol: as §1, §2, §3

[7] = test system: HeLa; test: MTT viability assay, HeLa; type: cell-based; settings: Homo sapiens, 48 h treatment, mean of three independent experiments
Protocol: as §1, §2, §3

[8] = test system: Caco2; test: MTT viability assay, Caco2; type: cell-based; settings: Homo sapiens, Caco-2, 48 h treatment, mean of three independent experiments
Protocol: as §1, §2, §3

[9] = Chemostability in pH 5.2 and 7.4 buffers and DMEM (LC-ESI-MS); type: physicochemical; settings: 37 °C
Protocol: (§4) The stability of SRPK1-targeting conjugates geo15 and geo140 was assessed at pH 5.2 and 7.4, as well as in cell culture medium (DMEM) and human plasma. All experiments were conducted at 37 °C, with samples analysed by LC-ESI-MS at specific time points. […] The half-lives of the conjugates ranged from several minutes to several hours, is discussed below.
(§5) Chemical stability experiments were conducted using LC-MS Method 4, except for the
(§6) pH stability studies of compound geo15, which were performed using LC-MS Method
(§7) 3. Representative chromatograms are provided for each experiment. geo15:
(§8) Figure S16. Chemical stability assay LC chromatograms for geo15.
(§9) Figure S17. Chemical stability assay LC chromatograms for geo140.

[10] = Stability in human plasma (LC-ESI-MS); type: in vitro ADME; settings: 37 °C
Protocol: as §4, §5, §6, §7, §8, §9

[11] = target: T1, GST-SRPK1 (Homo sapiens, UniProt Q96SB4); test: In vitro kinase assay, GST-SRPK1; type: biochemical; settings: substrate GST-LBRNt(62–92), 25 μM ATP
T1 construct: made in house; host or cells: bacteria (pGEX-2T vector)
Protocol: (§10) The inhibitory activity of geo140 and JH-VII-139-1 against SRPK1 and SRPK2 was assessed using in vitro kinase assays (Fig. 5). […] The IC50 values summarized in Panel E indicate that both JH-VII-139-1 and the hybrid compound geo140 act as effective inhibitors of SRPK-mediated phosphorylation, with however, differential selectivity between SRPK1 and SRPK2.
(§11) Fig. 5 Phosphorylation of 1 μg GST-LBRNt(62–92) by 0.5 μg GST-SRPK1 or 0.5 μg GST-SRPK2 in the presence of increasing concentrations of geo140 (A and B, respectively) or in the presence of increasing concentrations of JH-VII-139-1 (C and D, respectively). Panel C was taken from a previous publication of the authors.[2] The samples were analyzed by SDS-PAGE on 12% gels, stained with Coomassie blue and autoradiographed. Only the relevant part of the autorad corresponding to the phosphorylated substrate is shown. E. IC50 values of geo140 and JH-VII-139-1 against GST-SRPK1 and GST-SRPK2.
(§12) Human SRPK1, SRPK2, and a turkey LBR N-terminal fragment (amino acids 62–92; LBRNt(62–92)) were expressed as GST-fusion proteins in bacteria using the pGEX-2T vector (Amersham Biosciences) as previously described.[15] […] Phosphorylated GST-LBRNt(62–92) was detected by autoradiography (Super RX film, Fujifilm). Incorporated radioactivity was quantified by scintillation counting of the excised SDS-PAGE gel bands.

[12] = target: T2, GST-SRPK2 (Homo sapiens, UniProt P78362); test: In vitro kinase assay, GST-SRPK2; type: biochemical; settings: substrate GST-LBRNt(62–92), 25 μM ATP
T2 construct: made in house; host or cells: bacteria (pGEX-2T vector)
Protocol: as §10, §11, §12

[13] = test system: HeLa cells; test: Inverted phase-contrast microscopy of treated cells; type: cell-based; settings: 10 μM, phase-contrast microscope
Protocol: A similar morphology of geo140-treated cells was also observed using an inverted phase-contrast microscope.
Fig. 7 Microscopic view of control HeLa cells and treated with 10 μM geo140, taken at 10× or 40× magnification as indicated, using an inverted phase-contrast microscope.

T1 sequence (Q96SB4 whole entry): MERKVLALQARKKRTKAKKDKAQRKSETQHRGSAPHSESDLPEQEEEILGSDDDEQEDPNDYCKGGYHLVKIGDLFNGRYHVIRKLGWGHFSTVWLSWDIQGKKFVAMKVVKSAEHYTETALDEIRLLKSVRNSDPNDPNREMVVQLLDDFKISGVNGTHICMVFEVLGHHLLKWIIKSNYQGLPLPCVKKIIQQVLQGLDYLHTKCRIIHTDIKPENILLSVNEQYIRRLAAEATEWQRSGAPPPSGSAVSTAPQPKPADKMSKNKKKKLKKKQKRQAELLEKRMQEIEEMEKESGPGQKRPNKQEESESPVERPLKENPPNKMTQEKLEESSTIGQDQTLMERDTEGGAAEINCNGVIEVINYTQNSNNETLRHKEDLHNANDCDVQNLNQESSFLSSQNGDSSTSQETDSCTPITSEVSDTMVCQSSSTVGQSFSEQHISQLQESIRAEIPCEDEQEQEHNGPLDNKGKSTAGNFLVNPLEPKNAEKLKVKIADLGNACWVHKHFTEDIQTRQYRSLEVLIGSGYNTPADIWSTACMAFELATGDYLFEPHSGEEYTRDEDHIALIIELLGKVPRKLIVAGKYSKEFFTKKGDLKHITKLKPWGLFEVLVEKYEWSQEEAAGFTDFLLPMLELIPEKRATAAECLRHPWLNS
T2 sequence (P78362 whole entry): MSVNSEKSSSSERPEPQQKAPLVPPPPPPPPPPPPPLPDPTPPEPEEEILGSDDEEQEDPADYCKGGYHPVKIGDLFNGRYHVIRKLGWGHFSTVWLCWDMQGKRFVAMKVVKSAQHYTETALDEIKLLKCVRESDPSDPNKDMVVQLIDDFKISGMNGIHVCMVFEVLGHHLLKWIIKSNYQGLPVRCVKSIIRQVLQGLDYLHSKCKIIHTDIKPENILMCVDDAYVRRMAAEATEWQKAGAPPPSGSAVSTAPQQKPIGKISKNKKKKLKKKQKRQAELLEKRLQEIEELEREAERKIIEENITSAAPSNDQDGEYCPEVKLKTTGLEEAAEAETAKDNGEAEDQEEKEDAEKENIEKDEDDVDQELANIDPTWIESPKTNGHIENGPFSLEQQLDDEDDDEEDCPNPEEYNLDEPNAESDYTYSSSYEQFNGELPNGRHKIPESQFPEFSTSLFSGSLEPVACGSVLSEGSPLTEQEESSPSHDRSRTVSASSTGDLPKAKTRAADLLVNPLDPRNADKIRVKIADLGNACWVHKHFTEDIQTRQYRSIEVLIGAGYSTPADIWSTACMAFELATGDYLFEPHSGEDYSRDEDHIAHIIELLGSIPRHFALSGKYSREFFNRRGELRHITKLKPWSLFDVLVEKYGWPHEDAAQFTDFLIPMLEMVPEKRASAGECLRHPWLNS

| EC50 [2] [µM] | EC50 [3] [µM] | EC50 [5] [µM] | EC50 [6] [µM] | EC50 [7] [µM] | EC50 [8] [µM] | half-life ([9]; pH 7.4 buffer) [h] | Compound | EC50 [4] [µM] | other results |
| --- | --- | --- | --- | --- | --- | --- | --- | --- | --- |
| > 50 | 3.62 | 15.2 | > 50 | 25.7 | > 50 |  | O=c1[nH]cc(F)c(=O)[nH]1 [5-FU, 5-fluorouracil, reference compound] | > 50 | effect on SRPK1 subcellular localization ([1]; 20 μM, 24 h): more diffuse SRPK1 staining pattern, with some nuclear translocation of the kinase; effect on SRPK1 subcellular localization ([1]; 48 h): almost complete nuclear translocation of SRPK1 |
| 31.4 | 28.7 | > 50 | > 50 | 6.7 | > 50 |  | Nc1ccn([C@@H]2O[C@H](CO)[C@@H](O)C2(F)F)c(=O)n1 [Gemcitabine, gemcitabine, reference compound] | > 50 |  |
| > 50 | 38.4 | > 50 | > 50 | 33.1 | > 50 | > 48 | COc1cc(/C=C(\C#N)C(=O)Nc2nnc(C(F)(F)F)s2)ccc1OCc1ccc(NC(=O)CNC(=O)OC[C@H]2O[C@@H](n3ccc(N)nc3=O)C(F)(F)[C@@H]2O)cc1 [geo15] | > 50 | half-life ([9]; DMEM cell culture medium, DMEM): > 48 h; detection of retro-Knoevenagel reaction product 21 ([9]; DMEM): not observed; concentration of the conjugate remaining ([9]; during the 24 hour period, overall stability profile (all media)): above 50%; detection of retro-Knoevenagel reaction product 21 ([9]; pH buffer media): small percentage; release of SRPIN803 via the 1,6-elimination mechanism ([9]; stability media): no release of SRPIN803; detection of retro-Knoevenagel reaction product 21 [10]: not observed; half-life [10]: > 48 h |
| 27.1 | 19.3 | > 50 | 13.7 | 11.7 | 31.2 | > 48 | CCc1cc2c(cc1-c1ccn(C(=O)NCCOCCOCCNC(=O)Cn3c(=O)[nH]cc(F)c3=O)n1)C(C)(C)c1[nH]c3cc(C#N)ccc3c1C2=O [geo140, (JH-VII-139-1)–(5-FU) conjugate] | 21.5 | SRPK1 distribution in interphase cells [1]: SRPK1 retained a cytoplasmic distribution similar to that seen in untreated controls; number of mitotic cells ([1]; immunofluorescence): significant increase in the number of mitotic cells; IC50 [11]: 0.0221 µM; IC50 [12]: 7.9 µM; reduction in initial concentration ([9]; DMEM, after 24 hours): 10–20%; half-life ([9]; pH 5.2 buffer): > 48 h; reduction in initial concentration ([10]; after 24 hours): 10–20%; mitotic cells (round shape, distinct chromosomal structures) [13]: significant increase in mitotic cells |
